Data from patent US20260092068A1, “PHYSICAL FORMS OF AN INHIBITOR OF PRC2” (ORIC Pharmaceuticals, Inc., priority 2022, published 2026).

Experiment: Stability of Form 2 of Compound 1 under storage conditions (impurities by UPLC, solid form by XRPD)
Format: physicochemical
Conditions: for Storage stability: up to 6 months
Method: To measure stability of the Form 2 of Compound 1 under storage conditions, samples of Form 2 of Compound 1 were placed in double low-density polyethylene bags with desiccant between the bags and each was placed into a high-density polyethylene drum. One drum was stored at a temperature of 25° C. and 60% relative humidity (RH), and a second drum was stored at a temperature of 40° C. and 75% RH. Samples of the material were taken from both drums at 1 month, 3 months, and 6 months and the samples were analyzed for the presence of impurities. The amount of the Form 2 of Compound 1, and the amount of any impurities, in each sample was measured by ultra-performance liquid chromatography (UPLC) using the test conditions set and solvent gradients forth in Table 5 and Table 6. The samples were tested to determine the amount remaining of Form 2 at each time point, and the measurements were conducted by x-ray powder diffraction (XRPD) according to USP <941>.

[1] = 25° C. and 60% RH, Initial (Time = zero)
[2] = 40° C. and at 75% RH, Initial (Time = zero)

Cc1cc(CN(C)C)ccc1-c1cnc(NCc2c(F)ccc3c2CCO3)n2cc(C#N)nc12 [Form 2 of Compound 1, 8-(4-((dimethylamino)methyl)-2-methylphenyl)-5-(((5-fluoro-2,3-dihydrobenzofuran-4-yl)methyl)amino)imidazo[1,2-c]pyrimidine-2-carbonitrile]
Total impurities present (% area measured by UPLC) [1]: 1.4 % area
XRPD [1]: Crystalline
Total impurities present (% area measured by UPLC) (25° C. and 60% RH, Time = 1 month): 1.4 % area
XRPD (25° C. and 60% RH, Time = 1 month, consistent with T = 0): Crystalline
Total impurities present (% area measured by UPLC) (25° C. and 60% RH, Time = 3 months): 1.4 % area
XRPD (25° C. and 60% RH, Time = 3 months, consistent with T = 0): Crystalline
Total impurities present (% area measured by UPLC) (25° C. and 60% RH, Time = 6 months): 1.4 % area
XRPD (25° C. and 60% RH, Time = 6 months, consistent with T = 0): Crystalline
Total impurities present (% area measured by UPLC) [2]: 1.4 % area
XRPD [2]: Crystalline
Total impurities present (% area measured by UPLC) (40° C. and at 75% RH, Time = 1 month): 1.4 % area
XRPD (40° C. and at 75% RH, Time = 1 month, consistent with T = 0): Crystalline
Total impurities present (% area measured by UPLC) (40° C. and at 75% RH, Time = 3 months): 1.4 % area
XRPD (40° C. and at 75% RH, Time = 3 months, consistent with T = 0): Crystalline
Total impurities present (% area measured by UPLC) (40° C. and at 75% RH, Time = 6 months): 1.4 % area
XRPD (40° C. and at 75% RH, Time = 6 months, consistent with T = 0): Crystalline
Storage stability (stored at 25° C. and 60% RH): stable
Storage stability (stored at 40° C. and at 75% RH): stable
